Assays:
[1] = biological target: T1, DNA topoisomerase 1 (Homo sapiens) (UniProt P11387); assay: Inhibition of recombinant TOP1 (unknown origin) using 3'-[32P]-labeled 117 bp DNA oligonucleotide assessed as […] TOP1-mediated DNA cleavage incubated for 20 mins by PAGE analysis relative to 1 uM CPT
T1 sequence (whole entry): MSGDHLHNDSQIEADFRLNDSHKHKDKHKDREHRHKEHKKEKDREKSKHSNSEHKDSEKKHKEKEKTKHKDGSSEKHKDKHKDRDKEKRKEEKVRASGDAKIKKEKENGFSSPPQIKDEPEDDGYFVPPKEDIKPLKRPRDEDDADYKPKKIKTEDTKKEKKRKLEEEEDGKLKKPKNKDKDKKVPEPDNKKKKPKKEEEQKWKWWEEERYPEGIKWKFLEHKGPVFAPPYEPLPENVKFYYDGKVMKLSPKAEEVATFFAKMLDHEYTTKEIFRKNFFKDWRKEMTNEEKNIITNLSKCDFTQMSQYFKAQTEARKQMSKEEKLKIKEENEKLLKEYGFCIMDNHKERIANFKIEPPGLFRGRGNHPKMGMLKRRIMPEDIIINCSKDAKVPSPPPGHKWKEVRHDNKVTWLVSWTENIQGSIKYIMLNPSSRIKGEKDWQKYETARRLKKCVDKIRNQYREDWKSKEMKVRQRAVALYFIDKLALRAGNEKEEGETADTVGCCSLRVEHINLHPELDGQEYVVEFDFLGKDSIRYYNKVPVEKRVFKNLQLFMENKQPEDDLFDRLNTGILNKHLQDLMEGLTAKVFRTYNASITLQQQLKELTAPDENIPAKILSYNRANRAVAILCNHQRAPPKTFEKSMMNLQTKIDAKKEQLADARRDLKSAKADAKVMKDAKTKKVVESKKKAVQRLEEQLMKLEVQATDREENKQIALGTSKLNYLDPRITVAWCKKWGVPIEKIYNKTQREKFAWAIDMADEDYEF

CCRF-CEM = assay: Growth inhibition of human CCRF-CEM cells incubated for 48 hrs by sulforhodamine B assay; format: functional
K562 = assay: Growth inhibition of human K562 cells incubated for 48 hrs by sulforhodamine B assay; format: functional; details: K562, 48 h
MOLT-4 = assay: Growth inhibition of human MOLT4 cells incubated for 48 hrs by sulforhodamine B assay; format: functional; details: MOLT-4, 48 h
RPMI-8226 = assay: Growth inhibition of human RPMI8226 cells incubated for 48 hrs by sulforhodamine B assay; format: functional; details: RPMI-8226, 48 h
A549 = assay: Growth inhibition of human A549/ATCC cells incubated for 48 hrs by sulforhodamine B assay; format: functional; details: A549, 48 h
EKVX = assay: Growth inhibition of human EKVX cells incubated for 48 hrs by sulforhodamine B assay; format: functional
HOP-92 = assay: Growth inhibition of human HOP92 cells incubated for 48 hrs by sulforhodamine B assay; format: functional; details: HOP-92, 48 h
NCI-H226 = assay: Growth inhibition of human NCI-H226 cells incubated for 48 hrs by sulforhodamine B assay; format: functional; details: NCI-H226, 48 h
NCI-H460 = assay: Growth inhibition of human NCI-H460 cells incubated for 48 hrs by sulforhodamine B assay; format: functional; details: NCI-H460, 48 h
SF-268 = assay: Growth inhibition of human SF268 cells incubated for 48 hrs by sulforhodamine B assay; format: functional; details: SF-268, 48 h
SF-295 = assay: Growth inhibition of human SF295 cells incubated for 48 hrs by sulforhodamine B assay; format: functional; details: SF-295, 48 h
SNB-19 = assay: Growth inhibition of human SNB19 cells incubated for 48 hrs by sulforhodamine B assay; format: functional; details: SNB-19, 48 h
LOX IMVI = assay: Growth inhibition of human LOXIMVI cells incubated for 48 hrs by sulforhodamine B assay; format: functional
Malme-3M = assay: Growth inhibition of human MALME-3M cells incubated for 48 hrs by sulforhodamine B assay; format: functional
M14 = assay: Growth inhibition of human M14 cells incubated for 48 hrs by sulforhodamine B assay; format: functional; details: M14, 48 h
SK-MEL-2 = assay: Growth inhibition of human SK-MEL-2 cells incubated for 48 hrs by sulforhodamine B assay; format: functional; details: SK-MEL-2, 48 h
SK-MEL-28 = assay: Growth inhibition of human SK-MEL-28 cells incubated for 48 hrs by sulforhodamine B assay; format: functional; details: SK-MEL-28, 48 h
COLO 205 = assay: Growth inhibition of human COLO205 cells incubated for 48 hrs by sulforhodamine B assay; format: functional; details: COLO 205, 48 h
HCT-116 = assay: Growth inhibition of human HCT116 cells incubated for 48 hrs by sulforhodamine B assay; format: functional; details: HCT-116, 48 h
HCT-15 = assay: Growth inhibition of human HCT15 cells incubated for 48 hrs by sulforhodamine B assay; format: functional; details: HCT-15, 48 h
HT-29 = assay: Growth inhibition of human HT-29 cells incubated for 48 hrs by sulforhodamine B assay; format: functional; details: HT-29, 48 h
A498 = assay: Growth inhibition of human A498 cells incubated for 48 hrs by sulforhodamine B assay; format: functional; details: A498, 48 h
CAKI-1 = assay: Growth inhibition of human Caki1 cells incubated for 48 hrs by sulforhodamine B assay; format: functional; details: CAKI-1, 48 h
RXF 393 = assay: Growth inhibition of human RXF393 cells incubated for 48 hrs by sulforhodamine B assay; format: functional; details: RXF 393, 48 h
MDA-MB-231 = assay: Growth inhibition of human MDA-MB-231 cells incubated for 48 hrs by sulforhodamine B assay; format: functional; details: MDA-MB-231, 48 h
Hs-578T = assay: Growth inhibition of human Hs 578T cells incubated for 48 hrs by sulforhodamine B assay; format: functional
BT-549 = assay: Growth inhibition of human BT549 cells incubated for 48 hrs by sulforhodamine B assay; format: functional; details: BT-549, 48 h
MDA-MB-468 = assay: Growth inhibition of human MDA-MB-468 cells incubated for 48 hrs by sulforhodamine B assay; format: functional; details: MDA-MB-468, 48 h
IGROV-1 = assay: Growth inhibition of human IGROV1 cells incubated for 48 hrs by sulforhodamine B assay; format: functional; details: IGROV-1, 48 h
NCI/ADR-RES = assay: Growth inhibition of human NCI/ADR-RES cells incubated for 48 hrs by sulforhodamine B assay; format: functional
SK-OV-3 = assay: Growth inhibition of human SKOV3 cells incubated for 48 hrs by sulforhodamine B assay; format: functional; details: SK-OV-3, 48 h
PC-3 = assay: Growth inhibition of human PC3 cells incubated for 48 hrs by sulforhodamine B assay; format: functional; details: PC-3, 48 h
DU-145 [2] = assay: Growth inhibition of human DU145 cells incubated for 48 hrs by sulforhodamine B assay; format: functional; details: DU-145, 48 h
[3] = test system: Panel NCI-60 (60 carcinoma cell lines); assay: Growth inhibition of human NCI60 incubated for 48 hrs by sulforhodamine B assay; format: functional
DU-145 [4] = assay: cells; details: Homo sapiens, DU-145, 72 h

Compound | inhibition [1] [%] | GI50 (CCRF-CEM) [nM] | GI50 (K562) [nM] | GI50 (MOLT-4) [nM] | GI50 (RPMI-8226) [nM] | GI50 (A549) [nM] | GI50 (EKVX) [nM] | GI50 (HOP-92) [nM] | GI50 (NCI-H226) [nM] | GI50 (NCI-H460) [nM] | GI50 (SF-268) [nM] | GI50 (SF-295) [nM] | GI50 (SNB-19) [nM] | GI50 (LOX IMVI) [nM] | GI50 (Malme-3M) [nM] | GI50 (M14) [nM] | GI50 (SK-MEL-2) [nM] | GI50 (SK-MEL-28) [nM] | GI50 (COLO 205) [nM] | GI50 (HCT-116) [nM] | further results
COc1cc2c(=O)n(CCN)c3c4cc5c(cc4ccc3c2cc1OC)OCO5 | 50 to 75 | 150 | 161 | 63.3 | 257 | 584 | 1360 | 3560 | 1340 | 230 | 442 | 279 | 398 | 246 | 613 | 324 | 3010 | 3050 | 290 | 285 | GI50 (HCT-15): 420 nM; GI50 (HT-29): 168 nM; GI50 (A498): 1230 nM; GI50 (CAKI-1): 295 nM; GI50 (RXF 393): 929 nM; GI50 (MDA-MB-231): 1280 nM; GI50 (Hs-578T): 1960 nM; GI50 (BT-549): 918 nM; GI50 (MDA-MB-468): 157 nM; GI50 (IGROV-1): 500 nM; GI50 (NCI/ADR-RES): 1010 nM; GI50 (SK-OV-3): 1240 nM; GI50 (PC-3): 532 nM; GI50 (DU-145 [2]): 527 nM; GI50 [3]: 525 nM; GI50 (DU-145 [4]): 14 nM
CNCCn1c(=O)c2cc(OC)c(OC)cc2c2ccc3cc4c(cc3c21)OCO4 | 75 to 95 | 20.1 | 39.4 | 23.4 | 76.3 | 94.8 | 202 | 184 | 172 | 21.2 | 90.3 | 34.6 | 116 | 38.9 | 174 | 58.1 | 393 | 573 | 60.5 | 51.5 | GI50 (HCT-15): 116 nM; GI50 (HT-29): 50.8 nM; GI50 (A498): 127 nM; GI50 (CAKI-1): 64.4 nM; GI50 (RXF 393): 160 nM; GI50 (MDA-MB-231): 362 nM; GI50 (Hs-578T): 904 nM; GI50 (BT-549): 202 nM; GI50 (MDA-MB-468): 59.9 nM; GI50 (IGROV-1): 145 nM; GI50 (NCI/ADR-RES): 165 nM; GI50 (SK-OV-3): 157 nM; GI50 (PC-3): 112 nM; GI50 (DU-145 [2]): 130 nM; GI50 [3]: 97.7 nM; GI50 (DU-145 [4]): 2 nM

Reference: ChEMBL document CHEMBL4364246, “Synthesis and biological evaluation of 5-aminoethyl benzophenanthridone derivatives as DNA topoisomerase IB inhibitors” (Eur J Med Chem, 2019)
